From BindingDB's records for doi:10.1021/jm990200p (Synaptic Pharmaceutical, 1999)

Assay: In vitro binding affinity against Alpha-1A adrenergic receptor in isolated prostate tissue of dog

Work on `CCC1=C(C(N)=O)C(c2ccc(F)c(F)c2)N(C(=O)NCCCN2CCC(C(=O)OC)(c3ccccc3)CC2)C(=O)N1` (stereo unspecified) [1-(3-{[5-Carbamoyl-6-(3,4-difluoro-phenyl)-4-ethyl-2-oxo-3,6-dihydro-2H-pyrimidine-1-carbonyl]-amino}-propyl)-4-phenyl-piperidine-4-carboxylic acid methyl ester] yielded a Ki of 1.3 nM.
